Results taken from US20260256799A1, “INHIBITORS FOR TREATING SOLID TUMOURS” (UNIVERSITY OF SOUTHAMPTON, priority 2023, published 2026).

System: HNSCC and NSCLC CAF
Assay: Established myoCAF phenotype of CAF cultured ex vivo
Type: cell-based, human
Description: Human NSCLC cell line H441, HNSCC SCC25, murine cancer cell line TC-1 (lung), MC38 (colon) and human fetal foreskin fibroblasts HFFF2 were purchased from European Collection of Cell Cultures (Public Health England) or ATCC; HNSCC 5PT [32] were provided by l. Mackenzie (Queen Mary University of London, UK). HEK-293T cells and IMR90 lung fibroblasts were provided by Jesus Gil (Imperial College, London, UK). SCC25 were grown in Ham's F12:DMEM (1:1 ratio) medium with 10% FBS (Calbiochem) and 292 μg/ml L-Glutamine. 5PT were cultured in keratinocyte growth medium. HEK-293T, H441, MC38, HFFF2, IMR90 and primary fibroblasts were grown in DMEM supplemented with 10% FBS and 292 μg/ml L-Glutamine. Primary fibroblasts were isolated as previously used at early passage (p1-10). C57BL/6 murine normal lung and colon fibroblasts (MLF and MCF respectively) were grown at 3% oxygen. TC-1 were cultured in RPMI supplemented with 10% FBS and 292 μg/ml L-Glutamine. All cell cultures were routinely tested for mycoplasma contamination. All cells were cultured using standard cell culture plates/flasks (Corning). HFFF2 or IMR90 cells were transfected with 25 μM On-Target pool siRNA (Thermo Scientific/Dharmacon) using Oligofectamine reagent (Life Technologies) as described. Stable knockdown was performed using retro/lentiviral mediated transduction of shRNA plasmids, as previously described followed by cell selection using 1 μg/ml puromycin for 5-7 days. NOX4-inducible HEK-293 cells (kindly provided by Vincent Jaquet) were treated with 1 μg/ml doxycycline. Wild type and mutant (C2991L) ATM over-expression was carried out transfecting HFFF2 with Viafect (Promega) according to manufacturer's instructions and selected for 10 days with 4 mg/ml G418. p-Retrosuper-shATM (ATM #1:912) and pCDNA3.1-Flag-mut-ATM (C2991L; pTP1625 clone) were kindly provided by Yosef Shiloh and Tanya Paull respectively. pLKO.1 murine shATM (TRCN0000012643) and pCDNA3.1-Flag-wt-ATM (31985) were purchased from Sigma and Addgene respectively. 2 ng/ml TGF-3 (TGF-β1; R&D Systems; for 3 days) was used to induce myofibroblast differentiation. 10 ng/ml IL-1pR (R&D Systems) for 72 hours was used to induce iCAF differentiation. […] All the inhibitors were resuspended in DMSO. To trigger DDR activation and/or cell stress HFFF2 were either irradiated with 2-100Gy using 350Kv X-Ray Irradiation System (Faxitron), or treated with 100 ng/ml Neocarzinostatin for 2 hours (NCS; Sigma), with 2-10 mM H2O2(Fisher Scientific) or with 5 μg/ml Cisplatin (Sandoz) for 30 minutes.
Cells were lysed in ice-cold RIPA buffer [1% NP40, 150 mM NaCl, 25 mM Tris-HCl pH 7.5, 0.1% SDS, 1% Na-Deoxycolate, 1 mM EGTA, 1 mM EDTA, 1 mM Na-orthovanadate, 10 mM Na-fluoride, 2.5 mM Na-pyrophosphate, 1 mM p glycerophosphate+freshly added 1 mM PMSF, 20 mM N-Ethylmaleimide (NEM), 10 ng/ml Microcystin-LR, 0.12 μM Okadaic acid and phosphatase and protease inhibitor cocktails; all from Sigma]. Protein extracts were then centrifuged and supernatants quantified using Dc-Bio-Rad protein assay kit (Bio-Rad laboratories) as previously. For nuclear-cytoplasmic protein extraction, the inventors used NE-PER Reagents according to manufacturer's instructions (Thermofisher). Equal amounts of protein were electrophoresed either in reducing (+Dithiothreitol, DTT) or in non-reducing conditions in 3-8% or 4-12% SDS-PAGE gels and electro blotted as previously.

CN(C)CCCOc1ccc(-c2ccc3ncc4c(c3c2)n(C2CCOCC2)c(=O)n4C)cn1 [AZD0156]
myoCAF differentiation (reversal) (CAF E treated with AZD0156 for 5 days, Q-RT-PCR): reversed | reversal of myoCAF differentiation after AZD0156 treatment was discontinued (CAF E, 5 days AZD0156 then further 5 days without AZD0156): maintained
